Source: ChEMBL document CHEMBL4257082, “Nhe3-binding compounds and methods for inhibiting phosphate transport” (2016)
pIC50: −log10 of the molar value.

Tests used:
[1] = biological target: Sodium/hydrogen exchanger 3 (Rattus norvegicus, UniProt P26433); assay: Inhibition of rat NHE3
[2] = biological target: Sodium/hydrogen exchanger 1 (Rattus norvegicus, UniProt P26431); assay: Inhibition of rat NHE1
[3] = biological target: T1, Sodium/hydrogen exchanger 2 (Rattus norvegicus, UniProt P48763); assay: Inhibition of rat NHE2
T1 sequence (P48763 whole entry): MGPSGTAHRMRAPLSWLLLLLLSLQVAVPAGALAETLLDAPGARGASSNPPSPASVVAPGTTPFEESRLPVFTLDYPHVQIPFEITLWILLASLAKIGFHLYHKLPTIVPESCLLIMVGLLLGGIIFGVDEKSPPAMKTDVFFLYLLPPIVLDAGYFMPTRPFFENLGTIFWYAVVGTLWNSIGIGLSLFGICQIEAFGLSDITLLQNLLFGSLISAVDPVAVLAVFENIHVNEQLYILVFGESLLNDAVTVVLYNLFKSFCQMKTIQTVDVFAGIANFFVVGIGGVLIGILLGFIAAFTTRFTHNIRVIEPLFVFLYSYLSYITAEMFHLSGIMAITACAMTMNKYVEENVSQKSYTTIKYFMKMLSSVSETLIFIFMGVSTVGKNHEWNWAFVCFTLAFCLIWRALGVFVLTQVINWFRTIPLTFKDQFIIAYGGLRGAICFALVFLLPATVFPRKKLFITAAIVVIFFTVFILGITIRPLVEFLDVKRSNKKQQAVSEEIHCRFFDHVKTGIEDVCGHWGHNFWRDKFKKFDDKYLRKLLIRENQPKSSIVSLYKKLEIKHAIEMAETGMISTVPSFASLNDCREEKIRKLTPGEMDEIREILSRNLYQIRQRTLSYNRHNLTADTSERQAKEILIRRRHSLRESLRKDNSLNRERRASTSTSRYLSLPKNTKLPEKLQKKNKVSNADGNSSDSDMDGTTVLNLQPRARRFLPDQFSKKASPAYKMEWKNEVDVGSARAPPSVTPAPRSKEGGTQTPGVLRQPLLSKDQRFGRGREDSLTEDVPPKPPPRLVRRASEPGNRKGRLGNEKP

Sodium/hydrogen exchanger 3, sequence (P26433 whole entry): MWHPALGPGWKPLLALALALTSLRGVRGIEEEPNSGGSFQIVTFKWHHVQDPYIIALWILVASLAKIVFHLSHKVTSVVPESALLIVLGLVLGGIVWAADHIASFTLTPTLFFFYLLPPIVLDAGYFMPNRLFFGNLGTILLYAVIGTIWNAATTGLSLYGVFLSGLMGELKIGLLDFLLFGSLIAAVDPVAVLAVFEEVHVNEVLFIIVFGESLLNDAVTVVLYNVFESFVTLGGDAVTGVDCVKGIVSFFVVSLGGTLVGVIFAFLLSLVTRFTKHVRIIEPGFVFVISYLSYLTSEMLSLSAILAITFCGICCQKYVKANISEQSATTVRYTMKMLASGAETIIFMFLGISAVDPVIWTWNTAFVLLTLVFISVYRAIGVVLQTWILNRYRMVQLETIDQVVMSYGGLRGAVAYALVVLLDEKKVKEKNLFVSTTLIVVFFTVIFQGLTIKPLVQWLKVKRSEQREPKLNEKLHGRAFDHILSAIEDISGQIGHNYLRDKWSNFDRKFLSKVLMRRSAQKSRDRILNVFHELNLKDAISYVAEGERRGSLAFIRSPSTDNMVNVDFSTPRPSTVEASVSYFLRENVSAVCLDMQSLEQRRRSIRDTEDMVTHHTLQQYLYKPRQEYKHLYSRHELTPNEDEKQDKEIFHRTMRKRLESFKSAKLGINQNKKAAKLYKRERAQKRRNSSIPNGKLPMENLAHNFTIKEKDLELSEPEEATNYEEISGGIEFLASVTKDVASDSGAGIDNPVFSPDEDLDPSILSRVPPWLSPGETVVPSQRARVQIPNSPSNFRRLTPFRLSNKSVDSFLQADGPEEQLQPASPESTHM
Sodium/hydrogen exchanger 1, sequence (P26431 whole entry): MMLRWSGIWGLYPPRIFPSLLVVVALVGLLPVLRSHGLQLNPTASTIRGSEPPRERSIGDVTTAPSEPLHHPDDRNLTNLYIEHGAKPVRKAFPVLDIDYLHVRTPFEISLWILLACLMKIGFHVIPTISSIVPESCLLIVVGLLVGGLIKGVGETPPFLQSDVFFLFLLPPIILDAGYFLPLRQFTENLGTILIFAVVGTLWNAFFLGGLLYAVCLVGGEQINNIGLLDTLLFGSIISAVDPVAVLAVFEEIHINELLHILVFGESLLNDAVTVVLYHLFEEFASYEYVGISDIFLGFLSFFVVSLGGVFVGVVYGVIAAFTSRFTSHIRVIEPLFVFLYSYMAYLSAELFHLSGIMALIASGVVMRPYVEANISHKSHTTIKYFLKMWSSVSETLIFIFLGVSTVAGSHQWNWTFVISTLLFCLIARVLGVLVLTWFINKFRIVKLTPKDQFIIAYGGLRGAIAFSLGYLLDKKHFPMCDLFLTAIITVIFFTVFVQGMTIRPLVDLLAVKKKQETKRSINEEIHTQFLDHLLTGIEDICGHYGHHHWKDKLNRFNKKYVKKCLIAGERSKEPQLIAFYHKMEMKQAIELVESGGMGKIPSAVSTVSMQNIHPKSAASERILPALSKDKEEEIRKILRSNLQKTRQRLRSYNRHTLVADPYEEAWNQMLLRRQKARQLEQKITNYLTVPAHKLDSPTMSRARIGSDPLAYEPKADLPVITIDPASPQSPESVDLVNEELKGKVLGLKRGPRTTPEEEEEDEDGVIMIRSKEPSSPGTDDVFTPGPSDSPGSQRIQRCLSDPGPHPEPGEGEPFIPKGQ

pIC50 [1]: 4.85 | pIC50 [2]: 7.64 | pIC50 [3]: 6.60
SMILES: CN(C)c1nc(N)c(C(=O)NC(=N)N)nc1Cl
